Experimental data as given in patent publication US20090042849A1, “Phosphorylation of 5-lipoxygenase at ser523 and uses thereof” (priority 2006, published 2009).
Entries after “also recorded” stand apart in the source; their conditions may differ.

Experiments:
[1] = tested on: 5LO; assay: immunofluorescence of 5LO in adult rat cardiomyocyte cultures; format: cell-based; conditions: PIO 10 μM, ATV 10 μM, H-89 0.1 μM, 12 hours
Experimental: (§1) Cardiac myocytes were isolated from adult Sprague-Dawley rats (250-300 g, male). Animals were heparinized (1,000-2,000 units i.p.) 5 min before being anesthetized with ketamine (100 mg/kg) and xylazine (10 mg/kg), and the hearts were removed and placed in ice-cold heart media solution (in mmol/l: 112 NaCl, 5.4 KCl, 1 MgCl2, 9 NaH2PO4, and 11.1 D-glucose; supplemented with 10 HEPES, 30 taurine, 2 DL-carnitine, and 2 creatine, pH. 7.4). The hearts were perfused retrogradely in a Langendorff apparatus with Ca^2+-free heart media for 5 min at 5 ml/min at 37° C., followed by perfusion with Ca^2+-free heart media containing collagenase II, 210 U/mg (Worthington, Lakewood, N.J.) for 20 min. After perfusion, both ventricles were removed from the heart and minced in collagenase II-containing heart media for 10-15 min. The cell solution was then washed several times to remove collagenase II and reexposed to 1.2 mM Ca2^+ over 25 min to produce Ca2^+-tolerant cardiac myocytes. […]
(§2) Immunofluorescent labeling was performed on paraffin sections (5-μm) of 4% formaldehyde-fixed rat cardiac tissue, as described previously (22). […] All the slides were viewed under an Olympus BX51 microscope [images recorded by a DP70 Digital camera (Olympus Optical Co., Ltd., Tokyo, Japan)] or confocal microscope (Bio-Rad 2100 (Hercules, Calif.).

[2] = tested on: COX2; assay: immunofluorescence of COX2 in adult rat cardiac myocytes; format: cell-based
Experimental: as §1, §2

[3] = tested on: 5LO (Ser523 phosphorylated 5LO); assay: immunoblotting of total 5LO and P-5LO in rat myocardium (whole cell homogenate); format: in vivo; conditions: for myocardial levels of Ser523 phosphorylated 5LO (P-5LO) / myocardial total 5LO levels: whole cell homogenate, PIO or ATV 10 mg/kg/d 3 days, H-89 20 mg/kg i.p.
Experimental: (§3) Rats received: 1) PIO (10 mg/kg/d); 2) ATV (10 mg/kg/d); 3) PIO (10 mg/kg/d)+H89 (20 mg/kg); 4) ATV (10 mg/kg/d)+H89 (20 mg/kg); 5) H89 (20 mg/kg) or 6) water alone (control). PIO and ATV were suspended in water and administered by gastric gavage once daily for 3 days; H-89 was dissolved in DMSO (final concentration 5% v/v) and injected intraperitoneally on the third day. Rats in groups 5 and 6 received water by gastric gavage once daily for 3 days. Rats in groups 1, 2 and 6 received intraperitoneal inkection of DMSO 5%. Sixteen hours after the injection, rats were euthanized and the hearts explanted for further analyses. In another experiment, rats received 3-day pretreatment with: 1) water (sham); 2) PIO (10 mg/kg/d); 3) ATV (10 mg/kg/d); 4) PIO (10 mg/kg/d)+ATV (10 mg/kg/d); or 5) LPS (10 mg/kg).
PIO and ATV were administered by oral gavage once daily as above; LPS was administered intravenously. In addition, rats in groups 1-4 received intravenous saline on the […], whereas rats in group 1 and 5 received water by gastric gavage once daily for 3 days and the LPS injection on the third day. Sixteen hours after the injection, rats were euthanized and the hearts explanted for further analyses.
The hearts were rapidly explanted, rinsed in cold PBS (pH 7.4), containing 0.16 mg/ml heparin to remove red blood cells and clots, frozen in liquid nitrogen and stored at −70° C. Myocardial samples from the anterior left ventricular wall were homogenized in RIPA lysis buffer (Santa Cruz Biotechnology, Santa Cruz, Calif.) and centrifuged at 14,000 rpm for 15 min at 4° C. The supernatant was collected and the total protein concentration was determined using the Lowry protein assay. […] The protein samples with loading buffer were run in 4-20% Tri-HCl Ready Gel at a 100V for 2 h until the desired molecular weight bands were separated. After electrophoresis, the gel was equilibrated in transfer buffer (25 mM Tris, 193 mM glycine, 0.1% SDS and 10% methanol) and the proteins were transferred to nitrocellulose membrane. The protein signals were quantified by an image-scanning-densitometer and the strength of each protein signal was normalized to the corresponding b-actin stain signal. Data are expressed as a ratio between the protein and the corresponding b-actin signal density.

[4] = tested on: 15ELXA; assay: 15ELXA levels in adult rat cardiac myocytes (ELISA); format: cell-based
[5] = tested on: rat infarct model; assay: rat infarct model, infarct size; format: in vivo; conditions: ATV 2 mg/kg/d, cilostazol 20 mg/kg/d, alone or combined
Experimental: The effects of cilostazol (Pletal) and atorvastatin on myocardial protection was measured in a rat infarct model. Pletal is a phosphodiesterase III inhibitor, thus increasing intracellular cAMP levels. cAMP activates PKA. ATV at 2 mg/kg/d had no effect. Cilostazol 20 mg/kg/d reduced infarct size. However, when combined with ATV 2 mg/kg/d the effect was much greater. There are 8 rats in the control and ATV 2 mg/kg/d groups and 6 rats in the cilostazol and the combination groups. Infarct size in the ATV 2 mg/kg/d (30.48±1.46%) is not different from the controls (33.97±2.76%).

[6] = tested on: 5LO interaction with COX2 / cPLA2; assay: co-immunoprecipitation of 5LO with COX2 and cPLA2 in rat hearts; format: in vivo
Experimental: as §3
For co-immunoprecipitation, myocardial cytosolic, membranous and nuclear fractions (500 μg) were incubated with anti-5LO antibodies for 4 h followed by overnight incubation at 4° C. with Protein-A-Agarose. The agarose beads were collected by centrifugation and SDS/PAGE Western immunoblotting was performed with the supernatant fraction. The anti-5LO precipitates were subjected to immunoblotting with anti-COX2 or anti-cPLA2 antibodies.

[7] = PIO 10 μM, ATV 10 μM, H-89 0.1 μM, 12 hours

| SMILES | 5LO expression and localization in cardiomyocytes [1] | effect on the increased expression of COX2 by PIO+ATV ([2]; H-89 0.1 μM with PIO+ATV) | COX2 expression [2, 7] | effect on the increase in P-5LO by PIO and ATV ([3]; H-89 20 mg/kg i.p. with PIO or ATV 10 mg/kg/d) | myocardial levels of Ser523 phosphorylated 5LO (P-5LO) [3] | myocardial total 5LO levels [3] | effect on the PIO+ATV augmentation of 15ELXA levels ([4]; H-89 0.1 μM with PIO+ATV) | levels of 15ELXA [4, 7] | 5LO phosphorylation, PIO and ATV compared with LPS ([3]; PIO, ATV 10 mg/kg/d, LPS 10 mg/kg i.v.) | Infarct size [5] [%] | effect on infarct size (in words) [5] | fraction in which the co-immunoprecipitation with 5LO occurred ([6]; cytosolic and membranous fractions) | co-immunoprecipitation of COX2 or cPLA2 with 5LO ([6]; whole cell lysate) |
| --- | --- | --- | --- | --- | --- | --- | --- | --- | --- | --- | --- | --- | --- |
| O=S(=O)(NCCNC/C=C/c1ccc(Br)cc1)c1cccc2cnccc12 [H-89] | no effect | did not affect; also recorded: no effect | no effect | completely blocked | did not affect | did not affect | attenuated | no effect | – | – | – | – | – |
| CC(C)c1c(C(=O)Nc2ccccc2)c(-c2ccccc2)c(-c2ccc(F)cc2)n1CCC(O)CC(O)CC(=O)O (stereo not drawn) [ATV, 7-[2-(4-fluorophenyl)-5-(1-methylethyl)-3-phenyl-4-(phenylcarbamoyl)-1H-pyrrol-1-yl]-3,5-dihydroxy-heptanoic acid] | – | – | – | – | augment; also recorded: increased | without detectable change; also recorded: did not affect | – | – | significantly greater increase | 30.48±1.46 | no effect | in the cytosolic, but not the membranous fraction; also recorded: only in the cytosolic fraction | 5LO precipitated with COX2 and COX2, but not cPLA2, precipitated with 5LO |
